In one test the test system is CCK receptors. Kind of test: Rat gastric emptying: reversal of CCK-delayed gastric emptying. Format: in vivo. Conditions: CCK 100 μg/Kg i.p.; for CCK-delayed gastric emptying: ED50: IP. How it is done:
Rat Gastric Emptying Protocol
A test meal for measuring gastric emptying in rats was prepared. Ten grams of methylcellulose (2% solution=15 centipoises; Aldrich Chemical Company, Milwaukee, Wisc. was added to 200ml of cold water and mixed at 20,000 rpm in a Waring blender to insure dispersion and hydration of the methylcellulose. In addition, two beef bouillon cubes (Wyler's, Columbus, Ohio) dissolved in 100 ml of warm water was added to the mixture, followed by 16 g of casein (Hammersten, Schwartz/Mann, Orangeburg, N.Y.), 8 g of powdered confectioners sugar and 8 g of cornstarch. The ingredients were mixed for two minutes at 20,000 rpm and the resultant test meal was refrigerated for 48 hours to allow trapped air to escape. Male Charles River Rats, Crl: COBS, CD (SD) BR Strain, 180-200 g body weight, were used in groups of six animals. The animals were food deprived for 24 hours prior to the experiment with access to water ad libitum. The compounds to be evaluated were prepared in a 0.5% aqueous methylcellulose solution. If insoluble, the mixture was homogenized for two minutes at 5500 rpm using a Try-R-Stir-R. The compounds were given intraperitoneally or intragastrically at a volume of 5 ml/kg, 60 minutes or 90 min, respectively, before the test meal. Control animals received only the vehicle. Cholecystokinin (100 μg/Kg, i.p.) was given 30 minutes before the test meal to delay gastric emptying by an effect elicited through CCK receptors. Sixty minutes after the test meal (2.0 ml/rat, i.g.), the rats were sacrificed by CO2 asphyxiation. The stomachs were removed intact and weighed. The stomachs were kept opened, gently rinsed with tap water, blotted dry with paper toweling, and the empty stomach weighed. The difference between the weight of the full and empty stomach is indicative of the amount of meal remaining in the stomach. The amount of meal remaining in the stomach was subtracted from the weight of 3 ml of the test meal to determine the amount of food emptied from the stomach during the test. Weight of the test meal was determined by weighing three samples (3 ml) at the beginning and three samples at the end of each experiment and calculating the mean. The mean and standard error of the amount of meal emptied were calculated for at least 5 doses of compound, and expressed as percent change from control.

A further test addresses T1, CCK-A (Rattus norvegicus, UniProt P30551).
T1 sequence (P30551 1-444): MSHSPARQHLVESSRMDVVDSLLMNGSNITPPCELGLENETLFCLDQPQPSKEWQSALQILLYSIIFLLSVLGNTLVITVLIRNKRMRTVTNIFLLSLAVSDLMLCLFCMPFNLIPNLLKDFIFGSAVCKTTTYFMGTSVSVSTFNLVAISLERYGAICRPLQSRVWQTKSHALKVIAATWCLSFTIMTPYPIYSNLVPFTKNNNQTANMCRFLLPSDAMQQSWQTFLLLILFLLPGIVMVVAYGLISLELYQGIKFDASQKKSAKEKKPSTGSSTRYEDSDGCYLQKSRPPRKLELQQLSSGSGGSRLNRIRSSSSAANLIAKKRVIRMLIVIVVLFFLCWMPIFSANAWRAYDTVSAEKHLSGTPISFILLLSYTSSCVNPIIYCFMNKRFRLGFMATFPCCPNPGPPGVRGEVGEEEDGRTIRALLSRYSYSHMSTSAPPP
The test can be described thus: Displacement of 125I-CCK-OP binding to rat pancreatic membranes (CCK-A binding). The following applies: 125I-CCK-OP.

In another test the target is T2, CCK-B (Cavia porcellus, UniProt H0VZC5).
T2 construct: Rat pancreas or guinea pig brain was homogenized; from tissue; host or cells: guinea pig brain homogenate (membrane pellet)
T2 sequence (H0VZC5 1-426): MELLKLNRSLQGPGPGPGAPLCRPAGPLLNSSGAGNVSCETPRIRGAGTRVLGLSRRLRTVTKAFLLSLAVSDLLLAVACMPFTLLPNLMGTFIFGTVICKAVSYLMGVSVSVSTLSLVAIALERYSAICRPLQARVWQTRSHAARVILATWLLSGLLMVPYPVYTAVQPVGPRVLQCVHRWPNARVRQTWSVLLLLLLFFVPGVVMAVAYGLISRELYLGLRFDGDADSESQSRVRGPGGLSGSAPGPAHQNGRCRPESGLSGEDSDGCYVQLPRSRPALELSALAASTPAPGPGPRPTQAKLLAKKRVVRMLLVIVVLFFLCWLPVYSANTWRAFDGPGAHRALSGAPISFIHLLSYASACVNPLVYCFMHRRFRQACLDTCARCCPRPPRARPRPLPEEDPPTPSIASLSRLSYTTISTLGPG
Kind of test: Displacement of 125I-CCK-OP binding to guinea pig brain homogenates (CCK-B binding). Conditions: guinea pig brain membranes; for inhibition at 10 µM: read-out: CCK-B binding GP brain membranes: percent displacement of 125I-CCK-OP. The protocol: Percent displacement of ^125 I-CCK-OP binding to rat pancreatic membrane and guinea pig brain homogenates by compounds of the instant invention at different concentrations was used to quantify CCK-A and CCK-B receptor binding, respectively.
Binding of 125-CCK-OP to rat pancreas (CCK-A) and guinea pig brain (CCK-B) homogenates.
Rat pancreas or guinea pig brain was homogenized in 50 and 20 volumes, respectively, of 50 mM Tris-HCl buffer (pH 7.8 at 25° C.) with a Brinkmann polytron homogenizer. The homogenates were centrifuged twice at 50,000 x g for 20 min with an intermediate rehomogenization in fresh buffer. The final pellets were resuspended in 20 volumes (brain) or 40 volumes (pancreas) of incubation buffer [50 mM Tris-HCl, 5 mM MgCl2, 0.2% BSA, 5 mM dithiothreitol, 0.14 mg/ml bacitracin, pH 7.9 at 25° C.]. One milliliter of the final homogenate from brain or pancreas was diluted to 50 mL with incubation buffer to use in the binding assay.
Binding experiments were performed in a final volume of 1 mL in 13×100 mm borosilicate disposable culture tubes. To duplicate tubes were added 890 μL of freshly resuspended pancreas or brain homogenate; 73,000 dpm of […] (final concentration, 12 pM) and 10 μL of DMSO containing displacing agents (compounds or reference compounds, at the desired final concentrations). Nonspecific (nonsaturable) binding was determined in the presence of 1 μM unlabeled CCK-OP. After incubation for 30 min at 37° C. the binding was stopped by rapid filtration under a reduced pressure through glass fiber FPD-105 Whatman GF/B filters on Harvester and washed twice with 5 mL of ice-cold Tris buffer (50 mM Tris-HCl, pH 7.8). The radioactivity on the filters was counted in a gama counter. […] Specific binding was defined as the excess binding over that in blanks containing 1 μM unlabeled CCK-OP.
Determination of IC50 for displacing agents
A general note: In a radioligand displacement assay an active substance lowers the binding of a labelled ligand.

As for `O=C(N[C@@H]1C(=O)N(c2ccccc2)C[C@@H]1C(=O)O)c1ccc2ccccc2c1` (relative stereo) [41 cis], in the test with CCK receptors, the “CCK-delayed gastric emptying: ED50” value amounted to 0.41 mpk. For the same compound, on CCK-A, the IC50 (commonly the concentration that gives 50% inhibition) was 15 nM. Further, the inhibition at 10 µM at CCK-B is 48%.

For the compound `O=C(N[C@@H]1C(=O)N(c2ccccc2)C[C@H]1C(=O)O)c1ccc2ccccc2c1` (relative stereo) [41 trans], the “CCK-delayed gastric emptying: ED50” value in the test with CCK receptors was 3.2 mpk. Besides, at CCK-B, the inhibition at 10 µM was 22%.

Consider `O=C(N[C@H]1C(=O)N(c2ccccc2)C[C@H]1C(=O)O)c1cc2ccccc2[nH]1` (relative stereo) [Example 29, cis-4-[(1H-indol-2-ylcarbonyl)amino]-5-oxo-1-phenyl-3-pyrrolidinecarboxylicacid], for which the “CCK-delayed gastric emptying: % Reversal @ Dose” value in the test with CCK receptors (1.0 mpk IP) worked out at 86.3%. The “CCK-delayed gastric emptying: ED50” value with CCK receptors is recorded as less than 0.1 mpk. Besides, the IC50 is 17 nM on CCK-A and 5100 nM at CCK-B (125I-CCK-OP, read-out: CCK-B binding GP brain membranes: IC50).

For `O=C(N[C@H]1C(=O)N(c2ccccc2)C[C@H]1C(=O)O)c1ccc(Cl)c(Cl)c1` (relative stereo) [Example 35 (cis), cis-4-[[(3,4-dichlorophenyl)carbonyl]amino]-5-oxo-1-phenyl-3-pyrrolidinecarboxylic acid], the “CCK-delayed gastric emptying: % Reversal @ Dose” value in the test with CCK receptors (3 mpk IP) is given as 57.9%. The same compound registered an IC50 at CCK-A of 58 nM. Moreover, the inhibition at 10 µM at CCK-B was found to be 35%.

Take `O=C(N[C@H]1C(=O)N(c2ccccc2F)C[C@H]1C(=O)O)c1ccc2ccccc2c1` (relative stereo) [Example 44, cis-1-(2-Fluorophenyl)-4-[(2-naphthalenylcarbonyl]amino]-5-oxo-3-pyrrolidinecarboxylic acid]: the “CCK-delayed gastric emptying: % Reversal @ Dose” value in the test with CCK receptors (3 mpk IP) came to 86%. Moreover, the “CCK-delayed gastric emptying: ED50” value in the test on CCK receptors turned out to be 1.7 mpk. For the same compound, the inhibition at 10 µM on CCK-B is 41%.

(Values after patent US5314886A, “N-substituted lactams useful as cholecystokinin antagonists” (priority 1992, dated 1994).)
